Where two headings read alike, the source gives them in different places.
Tests used:
[1] = system: HEK293 human embryonic kidney cell line; assay: MTT cytotoxicity assay, normal cell line HEK293; type: cell-based; settings: read-out: IC50 (Mean ± SD) HEK293
Procedure: All the synthesized imidazothiazole derivatives linked with thiazolidinone moiety (4a-g and 5a-d, Fig. 4) were evaluated for their in- vitro anticancer activities against three selected human cancer cell lines namely non-small lung (A549), breast (MCF7) and colorectal (HCT116) and one normal human embryonic kidney cell line (HEK293) using the 3‐(4,5‐Dimethylthiazol‐2‐yl)-2,5‐Diphenyltetrazolium Bromide (MTT) assay method. […]. […].
Cytotoxicity study of the newly synthesized derivatives 4a-g and 5a-d was performed by MTT colorimetric assay method. […] Compounds were tested against selected cancer cell lines namely A549 (Lung), MCF-7(Breast) HCT116 (Colon), normal human embryonic kidney cell line (HEK293) and procured from National Centre for Cell Science Complex (NCCS) Pune University, India. Into a 96 well plate, cells were seeded into each well (3 × 10^3 cells/ per well), the plate were incubated for 24 h, after that the culture medium was discarded and replaced with fresh medium along with our newly synthesized test compounds in different concentration (10, 20, 40 and 80 µM) followed by incubation for 72 h. Further, the media of each well of the plates were aspirated with the addition of 100 µL MTT solution followed by incubation for the next 5 h at 37 °C. Finally, each well is treated with DMSO (100 µL) and swirled to dissolve the dark crystals of formazan. ELISA reader was used to measure the absorbance at 570 nm. The experiment was repeated three times; Graph pad prism and excel are used to calculate the IC50 values.

[2] = biological target: Bovine serum albumin (BSA) (Bos taurus, UniProt P02769); assay: BSA (protein albumin) denaturation inhibition assay; settings: for BSA denaturation inhibition assay Mean absorbance ± SEM: 660 nm; for inhibition at 100 µg/mL: read-out: BSA denaturation inhibition assay % inhibition of denaturation, 100 μg/mL
Chain of Bovine serum albumin (BSA) (P02769 25-607): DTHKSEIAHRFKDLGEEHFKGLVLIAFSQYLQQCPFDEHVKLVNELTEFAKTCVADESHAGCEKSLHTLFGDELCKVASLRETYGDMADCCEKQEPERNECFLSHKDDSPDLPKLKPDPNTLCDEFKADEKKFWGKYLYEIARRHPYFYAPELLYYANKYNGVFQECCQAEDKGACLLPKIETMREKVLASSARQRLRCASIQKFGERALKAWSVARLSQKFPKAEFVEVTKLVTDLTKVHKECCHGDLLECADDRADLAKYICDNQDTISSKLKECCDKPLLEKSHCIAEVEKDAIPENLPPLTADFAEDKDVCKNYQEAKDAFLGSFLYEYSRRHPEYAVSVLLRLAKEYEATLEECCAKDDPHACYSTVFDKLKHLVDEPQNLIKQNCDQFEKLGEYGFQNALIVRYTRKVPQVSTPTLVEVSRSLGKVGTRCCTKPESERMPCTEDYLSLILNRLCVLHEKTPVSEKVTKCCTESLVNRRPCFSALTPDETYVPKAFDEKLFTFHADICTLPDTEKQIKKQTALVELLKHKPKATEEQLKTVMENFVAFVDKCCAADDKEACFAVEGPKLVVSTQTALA
Procedure: All the synthesized compounds were evaluated for anti-inflammatory activity by the inhibition of the albumin denaturation technique. […] All the test solutions (1 mL, 100 μg/mL) were then mixed with 1 mL of albumin solution (1%) and phosphate buffer saline and then incubated for around 15 min at 27 ± 1 °C. Further, the denaturation of protein was induced by keeping the reaction mixture on the water bath for 10 min and maintaining the temperature at 60 °C. Once the solution gets cooled, the turbidity was measured using UV–Visible spectrophotometer at 660 nm.

[3] = system: carrageenan-induced rat hind paw edema; assay: Carrageenan-induced rat paw edema inhibition assay; type: in vivo; settings: after 4 h; for % inhibition (paw edema) / Increase in Paw volume SEM: oral 0.0314 mmol/kg; for Activity relative to standard drug: relative to diclofenac sodium; for Increase in Paw volume SEM: n = 6
Procedure: The anti-inflammatory efficacy of the newly synthesised compounds was assessed using a carrageenan-induced rat hind paw edema technique The animals were divided into groups of six at random, fasted for 24 h before to the experiment, and given free access to water. 0.5% CMC solution was given to the control group only. […] One hour after the administration of the test compounds and the reference drug, 0.1 mL of a 1% carrageenan solution in saline was subcutaneously injected into the subplantar area of the right hind paw of each rat. The right hind paw volume was measured using a Digital Plethysmometer PLM-01 Plus (Orchid Scientifics and Innovatives India Pvt. Ltd., Mumbai, India) at 3 and 4 h after carrageenan therapy. The following calculation was used to compute the percent edema inhibition from the mean effect in the treated and control animals: Percent edema inhibition=Vc-Vt/Vc×100 where Vc denotes the mean increase in paw volume in the control group of rats and Vt denotes the mean increase in paw volume in rats treated with test chemicals. After a 15-day washout period, the same group of rats utilised for the anti-inflammatory activity were employed for the ulcerogenic activity.

[4] = system: gastric mucosa of rats; assay: Ulcerogenic activity; type: in vivo, rat; settings: oral 0.0942 mmol/kg
Procedure: The Compounds (4a-d, 5a-b) which were found potent as anti-inflammatory agents were further screened for their ulcerogenic risk. The compounds and the standard drug were tested at an oral dose of 0.0942 mmol/kg.
Animals were divided into different groups consisting of 6 rats per group. […] The control group received 0.5% of the carboxymethylcellulose (CMC) solution. […] 24 h before the test compounds were administered. After receiving the medication, the rats were given regular food for 17 h and then sacrificed. The stomach was taken out and opened along its greater curvature before being gently cleansed by dipping it in normal saline and then washing it with distilled water. The mucosal injury/damage was examined thoroughly using a magnifying glass. The mucosal injury in each stomach was scored using the following score system: 0.5: Redness; 1.0: Spot Ulcers; 1.5: Hemorrhagic Streaks; 2.0: Ulcers > 3 but 5, 3.0: Ulcers > 5. The severity index (SI) of stomach mucosal injury was calculated as the mean score of each treated group minus the mean score of the control group.

[5] = system: gastric mucosa tissue of rats; assay: Lipid peroxidation in gastric mucosa; type: in vivo, rat; settings: oral 0.0942 mmol/kg
Procedure: The compounds screened for ulcerogenic potential were also analysed for lipid peroxidation. Lipid peroxidation is measured as nmolMDA/100 mg of gastric mucosa tissue. […] Thus, it was concluded that protection of gastric mucosa might be related to the inhibition of lipid peroxidation.
Lipid peroxidation in the gastric mucosa was determined using the reported method by Ohkawa H. et al.[61]. The gastric mucosa of the glandular area was scraped off using glass slides after the stomach had been examined for ulcers. Gastric mucosa was weighed (100 mg) and homogenised in 1.8 cm^3 of ice-cold solution of KCl (1.15%). The homogenate is further added with 0.2 cm^3 of 8.1% sodium dodecyl sulphate (SDS), 1.5 cm^3 of acetate buffer, and 1.5 cm^3 of 0.8% thiobarbituric acid. After adding all buffers, the mixture was kept for incubation for 60 min over water bath, maintaining the temperature of the water bath at 95 °C. Later, the mixture was allowed to cool and then extracted with a freshly prepared mixture of n-butanol and pyridine (15:1 v/v), the organic layer obtained was centrifuged at 3000 rpm for about 10 min. The organic layer was separated out and visualised on UV–visible spectrophotometer. Concentration was measured using the following formula: Concentration=Absorbance×volume×109÷1.56×10^5×1000
Results obtained were expressed as nmol MDA/100 mg tissue and extinction coefficient (1.56 × 10^5) cm^-1 M^-1.

[6] = system: A549 (Lung) cancer cell line; assay: MTT cytotoxicity assay, A549; settings: Homo sapiens, A549, 72 h, read-out: IC50 (µM) (Mean ± SD) A549
Procedure: (§1) All the synthesized imidazothiazole derivatives linked with thiazolidinone moiety (4a-g and 5a-d, Fig. 4) were evaluated for their in- vitro anticancer activities against three selected human cancer cell lines namely non-small lung (A549), breast (MCF7) and colorectal (HCT116) and one normal human embryonic kidney cell line (HEK293) using the 3‐(4,5‐Dimethylthiazol‐2‐yl)-2,5‐Diphenyltetrazolium Bromide (MTT) assay method. […] Compounds were tested against selected cancer cell lines namely A549 (Lung), MCF-7(Breast) HCT116 (Colon), normal human embryonic kidney cell line (HEK293) and procured from National Centre for Cell Science Complex (NCCS) Pune University, India. Into a 96 well plate, cells were seeded into each well (3 × 10^3 cells/ per well), the plate were incubated for 24 h, after that the culture medium was discarded and replaced with fresh medium along with our newly synthesized test compounds in different concentration (10, 20, 40 and 80 µM) followed by incubation for 72 h. […] Finally, each well is treated with DMSO (100 µL) and swirled to dissolve the dark crystals of formazan. ELISA reader was used to measure the absorbance at 570 nm. The experiment was repeated three times; Graph pad prism and excel are used to calculate the IC50 values[51].

[7] = system: MCF7 human breast cancer cell line; assay: MTT cytotoxicity assay, MCF7; settings: MCF7, 72 h, read-out: IC50 (µM) (Mean ± SD) MCF7
Procedure: as §1

[8] = system: HCT116 human colorectal cancer cell line; assay: MTT cytotoxicity assay, HCT116; settings: HCT-116, 72 h, read-out: IC50 (µM) (Mean ± SD) HCT116
Procedure: as §1

[9] = biological target: EGFR kinase (Homo sapiens, UniProt P00533); assay: In vitro EGFR kinase inhibitory assay (ELISA, phospho-EGFR in A549 cell lysates)
Chain of EGFR kinase (P00533 25-1210): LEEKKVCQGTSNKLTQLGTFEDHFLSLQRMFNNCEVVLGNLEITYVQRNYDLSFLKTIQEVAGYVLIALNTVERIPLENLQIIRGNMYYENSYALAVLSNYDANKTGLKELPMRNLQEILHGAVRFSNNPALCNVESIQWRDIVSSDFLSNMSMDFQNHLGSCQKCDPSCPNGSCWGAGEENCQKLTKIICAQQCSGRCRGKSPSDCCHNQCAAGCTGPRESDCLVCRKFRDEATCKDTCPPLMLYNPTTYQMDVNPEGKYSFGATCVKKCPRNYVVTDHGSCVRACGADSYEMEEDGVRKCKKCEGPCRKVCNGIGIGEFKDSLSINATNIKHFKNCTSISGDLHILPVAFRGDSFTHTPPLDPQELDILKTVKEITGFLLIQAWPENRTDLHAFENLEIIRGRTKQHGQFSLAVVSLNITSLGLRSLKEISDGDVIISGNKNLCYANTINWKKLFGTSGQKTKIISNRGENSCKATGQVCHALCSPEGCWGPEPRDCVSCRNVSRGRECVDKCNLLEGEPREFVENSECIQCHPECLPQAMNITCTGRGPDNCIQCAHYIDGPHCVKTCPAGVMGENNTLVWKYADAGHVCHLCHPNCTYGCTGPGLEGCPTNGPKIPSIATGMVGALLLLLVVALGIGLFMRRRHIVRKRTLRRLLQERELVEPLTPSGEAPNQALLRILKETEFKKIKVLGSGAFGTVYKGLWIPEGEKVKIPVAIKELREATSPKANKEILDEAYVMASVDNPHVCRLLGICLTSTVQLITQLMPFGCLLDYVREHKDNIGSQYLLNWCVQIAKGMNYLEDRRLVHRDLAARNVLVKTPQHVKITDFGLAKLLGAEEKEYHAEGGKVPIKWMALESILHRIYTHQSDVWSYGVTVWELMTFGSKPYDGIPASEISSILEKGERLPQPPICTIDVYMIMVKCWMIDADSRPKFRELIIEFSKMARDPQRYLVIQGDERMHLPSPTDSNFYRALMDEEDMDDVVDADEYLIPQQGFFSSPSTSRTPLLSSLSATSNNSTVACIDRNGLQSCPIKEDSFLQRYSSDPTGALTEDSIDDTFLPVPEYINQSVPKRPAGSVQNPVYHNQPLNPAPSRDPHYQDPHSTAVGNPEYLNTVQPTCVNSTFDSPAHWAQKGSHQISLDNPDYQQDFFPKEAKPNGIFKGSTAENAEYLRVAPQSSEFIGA
Procedure: For all the synthesized compounds, the overall methodology of a spectrophotometric assay for the inhibition of EGFR tyrosine kinase activity was evaluated in human A549 cells, which expressed high levels of EGFR protein. […] Cells were then washed with cold PBS, lysed in 0.2 ml/well of HNTG buffer (50 mM HEPES [(4‐(2‐hydroxyethyl)‐piperazineethanesulfonic acid; pH 7.5], 150 mM NaCl, 1.5 mM MgCl, 10% glycerol, 1% Triton X‐100, 0.5 mM sodium fluoride, 2 g/ml aprotinin, 2 g/ml pepstatin A, 1 mM sodium orthovanadate, 2 g/ml leupeptin, 1 mM phenyl methyl sulfonyl fluoride) for 10 min, and the lysates were collected as the supernatant fraction after a 12‐min centrifugation at 15,000 g. The specific EGFR concentration was measured by ELISA assay. Briefly, the wells of ELISA plates were coated with supernatant fraction and incubated at 4 °C overnight After washing three times with buffer (20 mM PBS, pH 7.2 containing 0.05% Tween‐20), the wells were blocked with 1% BSA for 2–3 h at room temperature. Further, the plate was washed and then mouse serum at 1,000‐fold dilution was added, followed by washing and incubation with phospho‐EGFR antibody (Invitrogen) at 4 °C overnight. The wells were washed and incubated with substrate solution (o‐phenylenediamine dihydrochloride), for 30 min, and the absorbance read on an ELISA plate reader at 490 nm[52]. %Inhibition=mean OD of untreated group-mean OD of treated group/mean OD of untreated group)×100.

[10] = system: carrageenan-induced paw edema inflammation; design: method as in earlier work; settings: albino rats; ref 50 (Saliyeva et al.); cited from earlier work
[11] = HEK293, MTT, 72 h, normal cell line

| BSA denaturation inhibition assay Mean absorbance ± SEM ([2]; 100 μg/mL) | inhibition at 100 µg/mL [2] [%] | Lipid peroxidation [5] [Nmol MDA/100 mg tissue] | melting point [°C] | IC50 [9] [µM] | BSA denaturation inhibition assay % inhibition of denaturation ([2]; 100 μg/mL) [%] | Compound | IC50 [1, 11] [µM] | % inhibition (paw edema) [3] [%] | Activity relative to standard drug [3] | Mean ulcer severity index ± SEM [4] | IC50 [6] [µM] | IC50 [7] [µM] | IC50 [8] [µM] | Increase in Paw volume SEM [3] | % inhibition carrageenan-induced paw edema [10] [%] | IC50 ([1]; HEK293, 72 h) [µM] |
| --- | --- | --- | --- | --- | --- | --- | --- | --- | --- | --- | --- | --- | --- | --- | --- | --- |
| 0.326 ± 0.002 | 82 | 6.16 ± 0.135 | 151 to 153 | 36 ± 1.89 |  | CC1SC(c2c(-c3ccccc3)nc3sccn23)N(c2ccc(Cl)cc2Cl)C1=O (stereo not shown) [Compound 4d, 3-(2,4-Dichlorophenyl)-5-methyl-2-(6-phenylimidazo[2,1-b]thiazol-5-yl)thiazolidin-4-one] | 181 ± 5.74 | 67.78 | 84.39 | 1.250 ± 0.281 | 31.8 ± 1.1 | 35.8 ± 1.03 | 49.5 ± 7.14 |  |  |  |
| 0.289 ± 0.012 | 61.1 |  | 187 to 189 | 57.1 ± 0.38 |  | CC1SC(c2c(-c3ccccc3)nc3sccn23)N(c2ccc([N+](=O)[O-])cc2)C1=O (stereo not shown) [Compound 4e, 5-Methyl-3-(4-nitrophenyl)-2-(6-phenylimidazo[2,1-b]thiazol-5-yl) thiazolidin-4-one] | 125 ± 5.8 |  |  |  | 50.6 ± 0.7 | 43.6 ± 7.19 | 89.9 ± 4.89 |  |  |  |
| 0.288 ± 0.002 | 60.6 |  | 155 to 157 | 49.7 ± 4.89 |  | Cc1ccc(N2C(=O)C(C)SC2c2c(-c3ccccc3)nc3sccn23)cc1 (stereo not shown) [Compound 4f] | 147 ± 4.57 |  |  |  | 40.22 ± 0.38 | 33.7 ± 0.84 | 47.6 ± 8.97 |  |  |  |
| 0.291 ± 0.011 | 62.1 |  | 162 to 164 | 46.5 ± 7.14 |  | COc1ccc(N2C(=O)C(C)SC2c2c(-c3ccccc3)nc3sccn23)cc1 (stereo not shown) [Compound 4g, 3-(4-Methoxyphenyl)-5-methyl-2-(6-phenylimidazo[2,1-b]thiazol-5-yl) thiazolidin-4-one] | 164 ± 4.69 |  |  |  | 70.1 ± 2.02 | 52.9 ± 1.65 | 76.3 ± 5.66 |  |  |  |
| 0.323 ± 0.002 | 79.9 | 5.75 ± 0.102 | 177 to 179 | 30.1 ± 4.17 |  | O=C1CSC(c2c(-c3ccccc3)nc3sccn23)N1c1ccc(Cl)cc1 (stereo not shown) [Compound 5a, 3-(4-Chlorophenyl)-2-(6-phenylimidazo[2,1-b]thiazol-5-yl) thiazolidin-4-one] | 117 ± 5.69 | 76.24 | 94.92 | 1.083 ± 0.238 | 42.7 ± 3.35 | 35.1 ± 1.25 | 58.8 ± 3.14 | 0.163 ± 0.018 |  |  |
| 0.317 ± 0.003 | 76.6 | 5.68 ± 0.071 | 159 to 161 | 33.1 ± 1.58 |  | O=C1CSC(c2c(-c3ccccc3)nc3sccn23)N1c1ccc(Br)cc1 (stereo not shown) [Compound 5b, 3-(4-Bromophenyl)-2-(6-phenylimidazo[2,1-b]thiazol-5-yl) thiazolidin-4-one] | 105 ± 3.5 | 74.78 | 93.10 | 1.000 ± 0.258 | 35.5 ± 2.15 | 44.2 ± 0.85 | 58.6 ± 4.51 | 0.133 ± 0.008 |  |  |
| 0.314 ± 0.003 | 79.9 |  | 153 to 155 | 29.3 ± 4.61 | 65.28 | Cc1ccc(N2C(=O)CSC2c2c(-c3ccccc3)nc3sccn23)cc1 (stereo not shown) [Compound 5c] | 109 ± 5.32 |  |  |  | 34.2 ± 2.82 | 35.8 ± 4.61 | 60 ± 6.44 |  |  |  |
| 0.287 ± 0.004 | 59.9 |  | 160 to 162 | 48 ± 1.97 |  | COc1ccc(N2C(=O)CSC2c2c(-c3ccccc3)nc3sccn23)cc1 (stereo not shown) [Compound 5d, 3-(4-Methoxyphenyl)-2-(6-phenylimidazo[2,1-b]thiazol-5-yl) thiazolidin-4-one] | 111.8 ± 0.25 |  |  |  | 33.1 | 38.1 ± 0.89 | 65.2 ± 0.9 |  |  |  |
|  |  |  |  |  |  | O=C(O)Cc1ccccc1Nc1c(Cl)cccc1Cl [Diclofenac sodium, reference compound] |  | 80.32 |  |  |  |  |  |  | 38.8 |  |
|  |  |  |  |  |  | C#Cc1cccc(Nc2ncnc3cc(OCCOC)c(OCCOC)cc23)c1 [Erlotinib, reference compound] |  |  |  |  | 8.34 ± 8.09 | 10.7 ± 5.65 | 12.5 ± 1.87 |  |  | 80.2 ± 1.3 |
